Measurements as given in patent US12391737B2, “Soluble NPY2 receptor agonists” (Boehringer Ingelheim International GmbH, priority 2020, dated 2025).
*1 amine or outer side, *2 acyl side, *3 side chain or, on linkers, in order; H or OH if unused. Where a SMILES comes first, the peptide text is derived from it. Side-chain parts run from the residue outwards. The star is where a group is joined. C18 diacid = O=C(O)CCCCCCCCCCCCCCCCC(=O)*; γGlu = O=C(O)[C@H](CCC(=O)[*:2])N[*:1]; Isovaleryl = CC(C)CC(=O)*; Ahx = NCCCCCC(=O)O

Key:
[1] = target: T1, Human Neuropeptide Y2 Receptor (Homo sapiens, UniProt P49146); experiment: Radioligand binding competition assay (RLB); conditions: Table 3, 125I-PYY(1-36) competition; read-out: Ki
T1 construct: purchased CHEMICON HTS066M
T1 sequence (P49146 1-381): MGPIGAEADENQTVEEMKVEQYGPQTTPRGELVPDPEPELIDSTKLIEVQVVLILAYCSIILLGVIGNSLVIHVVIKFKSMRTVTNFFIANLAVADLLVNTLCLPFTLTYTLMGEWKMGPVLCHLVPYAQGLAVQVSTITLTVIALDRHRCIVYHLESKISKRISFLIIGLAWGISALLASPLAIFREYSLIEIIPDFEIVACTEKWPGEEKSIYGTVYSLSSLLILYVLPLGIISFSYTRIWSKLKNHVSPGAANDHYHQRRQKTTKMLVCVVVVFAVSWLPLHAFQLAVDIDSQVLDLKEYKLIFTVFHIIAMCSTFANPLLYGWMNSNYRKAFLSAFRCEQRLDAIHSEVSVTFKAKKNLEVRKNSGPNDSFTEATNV
In short: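 Displacement of radioligand is measured after 2 h at room temperature with receptor membranes in Mg2+/Ca2+ HEPES buffer, pH 7.4. Filter-bound radioactivity is counted and IC50 obtained from curve fitting.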

Solubility determination = conditions: for Sol6: pH 6; for Sol7: pH 7
In short: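 Sample: TFA-salt peptide at 10 mg/ml target in 0.1 M Na diphosphate, pH 6.4 or 7.0, shaken 2 h RT, filtered, diluted to 1 mg/ml.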

| Ki [1] [nM] | Sol6 (Solubility determination) [mg/mL] | Sol7 (Solubility determination) [mg/mL] | SMILES |
| --- | --- | --- | --- |
| 19.8 | 9.8 | 10.0 | CC(C)CC(=O)N[C@@H](C)C(=O)N1CCC[C@H]1C(=O)N[C@@H](CCC(=O)O)C(=O)N[C@@H](CCCCNC(=O)CCCCCNC(=O)CC[C@H](NC(=O)CCCCCCCCCCCCCCCCC(=O)O)C(=O)O)C(=O)N1CCC[C@H]1C(=O)N[C@@H](CCC(=O)O)C(=O)N[C@@H](CCC(=O)O)C(=O)N[C@@H](CC(=O)O)C(=O)N[C@@H](C)C(=O)N[C@@H](CCC(=O)O)C(=O)N1CCC[C@H]1C(=O)N[C@@H](CCC(=O)O)C(=O)N[C@@H](CCC(=O)O)C(=O)N[C@@H](CC(C)C)C(=O)N[C@@H](CCC(N)=O)C(=O)N[C@@H](CCCNC(=N)N)C(=O)N[C@@H](Cc1ccc(O)cc1)C(=O)N[C@@H](Cc1ccc(O)cc1)C(=O)N[C@H](C(=O)N[C@@H](CO)C(=O)N[C@@H](CC(C)C)C(=O)N[C@@H](CCCNC(=N)N)C(=O)N[C@@H](Cc1c[nH]cn1)C(=O)N[C@@H](Cc1ccc(O)cc1)C(=O)N[C@@H](Cc1ccc(O)cc1)C(=O)N[C@@H](CCC(N)=O)C(=O)N[C@@H](Cc1c[nH]c2ccccc12)C(=O)N[C@@H](CC(C)C)C(=O)N[C@H](C(=O)N[C@@H](CCCNC(=N)N)C(=O)N[C@@H](CCC(N)=O)C(=O)N[C@@H](CCCNC(=N)N)C(=O)N[C@@H](Cc1ccc(O)cc1)C(N)=O)[C@@H](C)O)[C@@H](C)O [Compound 41, N{alpha-4}-(3-methylbutanoyl)-N{epsilon-7}-(6-[(4S)-4-carboxy-4-(17-carboxyheptadecanamido)butanamido]hexanoyl)[4A,7K,9E,13E,18Q,22T,28Y,30W,31L]-hPYY(4-36)] (Isovaleryl-APEK([Ahx-γGlu-C18 diacid])PEEDAEPEELQRYYTSLRHYYQWLTRQRY-NH2) |
| 0.93 | 8.4 | 8.9 | CC(C)CC(=O)N[C@@H](C)C(=O)N1CCC[C@H]1C(=O)N[C@@H](C)C(=O)N[C@@H](CCCCNC(=O)CCCCCNC(=O)CC[C@H](NC(=O)CCCCCCCCCCCCCCCCC(=O)O)C(=O)O)C(=O)N1CCC[C@H]1C(=O)N[C@@H](CCC(=O)O)C(=O)N[C@@H](C)C(=O)N[C@@H](CC(=O)O)C(=O)N[C@@H](C)C(=O)N[C@@H](CO)C(=O)N1CCC[C@H]1C(=O)N[C@@H](CCC(=O)O)C(=O)N[C@@H](CCC(=O)O)C(=O)N[C@@H](CC(C)C)C(=O)N[C@@H](CCC(N)=O)C(=O)N[C@@H](CCCNC(=N)N)C(=O)N[C@@H](Cc1ccc(O)cc1)C(=O)N[C@@H](Cc1ccc(O)cc1)C(=O)N[C@H](C(=O)N[C@@H](CCC(=O)O)C(=O)N[C@@H](CC(C)C)C(=O)N[C@@H](CCCNC(=N)N)C(=O)N[C@@H](Cc1c[nH]cn1)C(=O)N[C@@H](Cc1ccc(O)cc1)C(=O)N[C@@H](Cc1ccc(O)cc1)C(=O)N[C@@H](CC(N)=O)C(=O)N[C@@H](Cc1c[nH]c2ccccc12)C(=O)N[C@@H](CC(C)C)C(=O)N[C@H](C(=O)N[C@@H](CCCNC(=N)N)C(=O)N[C@@H](CCC(N)=O)C(=O)N[C@@H](CCCNC(=N)N)C(=O)N[C@@H](Cc1ccc(O)cc1)C(N)=O)[C@@H](C)O)C(C)C [Compound 94, N{alpha-4}-(3-methylbutanoyl)-N{epsilon-7}-(6-[(4S)-4-carboxy-4-(17-carboxyheptadecanamido)butanamido]hexanoyl)-[4A,6A,7K,9E,10A,18Q,22V,23E,28Y,30W,31L]-hPYY(4-36)] |
| 3.97 | 8.7 | 10.0 | CC(C)CC(=O)N[C@@H](C)C(=O)N1CCC[C@H]1C(=O)N[C@@H](C)C(=O)N[C@@H](CCCCNC(=O)CCCCCNC(=O)CC[C@H](NC(=O)CCCCCCCCCCCCCCCCC(=O)O)C(=O)O)C(=O)N1CCC[C@H]1C(=O)N[C@@H](CCC(=O)O)C(=O)N[C@@H](CCC(=O)O)C(=O)N[C@@H](CC(=O)O)C(=O)N[C@@H](C)C(=O)N[C@@H](CO)C(=O)N1CCC[C@H]1C(=O)N[C@@H](CCC(=O)O)C(=O)N[C@@H](CCC(=O)O)C(=O)N[C@@H](CO)C(=O)N[C@@H](CCC(N)=O)C(=O)N[C@@H](CCCNC(=N)N)C(=O)N[C@@H](Cc1ccc(O)cc1)C(=O)N[C@@H](Cc1ccc(O)cc1)C(=O)N[C@H](C(=O)N[C@@H](CO)C(=O)N[C@@H](CC(C)C)C(=O)N[C@@H](CCCNC(=N)N)C(=O)N[C@@H](Cc1c[nH]cn1)C(=O)N[C@@H](Cc1ccc(O)cc1)C(=O)N[C@@H](Cc1ccc(O)cc1)C(=O)N[C@@H](CC(N)=O)C(=O)N[C@@H](Cc1c[nH]c2ccccc12)C(=O)N[C@@H](CC(C)C)C(=O)N[C@H](C(=O)N[C@@H](CCCNC(=N)N)C(=O)N[C@@H](CCC(N)=O)C(=O)N[C@@H](CCCNC(=N)N)C(=O)N[C@@H](Cc1ccc(O)cc1)C(N)=O)[C@@H](C)O)C(C)C [Compound 149, N{alpha-4}-(3-methylbutanoyl)-N{epsilon-7}-(6-[(4S)-4-carboxy-4-(17-carboxyheptadecanamido)butanamido]hexanoyl)-[4A,6A,7K,9E,17S,18Q,22V,28Y,30W,31L]-hPYY(4-36)] |
| 4.58 | 0.0 | 9.5 | CC[C@H](C)[C@H](NC(=O)[C@H](CCC(=O)O)NC(=O)[C@H](CCC(=O)O)NC(=O)[C@@H]1CCCN1C(=O)[C@H](CCC(=O)O)NC(=O)[C@H](C)NC(=O)[C@H](C)NC(=O)[C@H](CCC(=O)O)NC(=O)[C@H](CCC(=O)O)NC(=O)[C@@H]1CCCN1C(=O)[C@H](CCCCNC(=O)CCCCCNC(=O)CC[C@H](NC(=O)CCCCCCCCCCCCCCCCC(=O)O)C(=O)O)NC(=O)[C@H](C)NC(=O)[C@@H]1CCCN1C(=O)[C@H](C)NC(=O)CC(C)C)C(=O)N[C@@H](CCC(N)=O)C(=O)N[C@@H](CCCNC(=N)N)C(=O)N[C@@H](Cc1ccc(O)cc1)C(=O)N[C@@H](Cc1ccc(O)cc1)C(=O)N[C@H](C(=O)N[C@@H](C)C(=O)N[C@@H](CC(C)C)C(=O)N[C@@H](CCCNC(=N)N)C(=O)N[C@@H](Cc1c[nH]cn1)C(=O)N[C@@H](Cc1ccc(O)cc1)C(=O)N[C@@H](Cc1ccc(O)cc1)C(=O)N[C@@H](CC(N)=O)C(=O)N[C@@H](Cc1c[nH]c2ccccc12)C(=O)N[C@@H](CC(C)C)C(=O)N[C@H](C(=O)N[C@@H](CCCNC(=N)N)C(=O)N[C@@H](CCC(N)=O)C(=O)N[C@@H](CCCNC(=N)N)C(=O)N[C@@H](Cc1ccc(O)cc1)C(N)=O)[C@@H](C)O)C(C)C [Compound 167, N{alpha-4}-(3-methylbutanoyl)-N{epsilon-7}-(6-[(4S)-4-carboxy-4-(17-carboxyheptadecanamido)butanamido]hexanoyl)-[4A,6A,7K,9E,11A,13E,17I,18Q,22V,23A,28Y,30W,31L]-hPYY(4-36)] |
| 12.7 | 3.6 | 8.8 | CC(C)CC(=O)N[C@@H](C)C(=O)N1CCC[C@H]1C(=O)N[C@@H](C)C(=O)N[C@@H](CCCCNC(=O)CCCCCNC(=O)CC[C@H](NC(=O)CCCCCCCCCCCCCCCCC(=O)O)C(=O)O)C(=O)N1CCC[C@H]1C(=O)N[C@@H](CCC(=O)O)C(=O)N[C@@H](CCC(=O)O)C(=O)N[C@@H](CC(=O)O)C(=O)N[C@@H](C)C(=O)N[C@@H](CO)C(=O)N1CCC[C@H]1C(=O)N[C@@H](CCC(=O)O)C(=O)N[C@@H](CCC(=O)O)C(=O)N[C@@H](CC(C)C)C(=O)N[C@@H](CCC(N)=O)C(=O)N[C@@H](CCCNC(=N)N)C(=O)N[C@@H](CCC(N)=O)C(=O)N[C@@H](Cc1ccc(O)cc1)C(=O)N[C@H](C(=O)N[C@@H](CO)C(=O)N[C@@H](CC(C)C)C(=O)N[C@@H](CCCNC(=N)N)C(=O)N[C@@H](Cc1c[nH]cn1)C(=O)N[C@@H](Cc1ccc(O)cc1)C(=O)N[C@@H](Cc1ccc(O)cc1)C(=O)N[C@@H](CC(N)=O)C(=O)N[C@@H](Cc1c[nH]c2ccccc12)C(=O)N[C@@H](CC(C)C)C(=O)N[C@H](C(=O)N[C@@H](CCCNC(=N)N)C(=O)N[C@@H](CCC(N)=O)C(=O)N[C@@H](CCCNC(=N)N)C(=O)N[C@@H](Cc1ccc(O)cc1)C(N)=O)[C@@H](C)O)C(C)C [Compound 5, N{alpha-4}-(3-methylbutanoyl)-N{epsilon-7}-(6-[(4S)-4-carboxy-4-(17-carboxyheptadecanamido)butanamido]hexanoyl)[4A,6A,7K,9E,18Q,20Q,22V,28Y,30W,31L]-hPYY(4-36)] |
| 8.17 | 9.6 | 9.7 | CC(C)CC(=O)N[C@@H](C)C(=O)N1CCC[C@H]1C(=O)N[C@@H](CCC(=O)O)C(=O)N[C@@H](CCCCNC(=O)CCCCCNC(=O)CC[C@H](NC(=O)CCCCCCCCCCCCCCCCC(=O)O)C(=O)O)C(=O)N1CCC[C@H]1C(=O)N[C@@H](CCC(=O)O)C(=O)N[C@@H](CCC(=O)O)C(=O)N[C@@H](CC(=O)O)C(=O)N[C@@H](C)C(=O)N[C@H](C(=O)N1CCC[C@H]1C(=O)N[C@@H](CCC(=O)O)C(=O)N[C@@H](CCC(=O)O)C(=O)N[C@@H](CC(C)C)C(=O)N[C@@H](CCC(N)=O)C(=O)N[C@@H](CO)C(=O)N[C@@H](Cc1ccc(O)cc1)C(=O)N[C@@H](Cc1ccc(O)cc1)C(=O)N[C@H](C(=O)N[C@@H](CO)C(=O)N[C@@H](CC(C)C)C(=O)N[C@@H](CCCNC(=N)N)C(=O)N[C@@H](Cc1c[nH]cn1)C(=O)N[C@@H](Cc1ccc(O)cc1)C(=O)N[C@@H](Cc1ccc(O)cc1)C(=O)N[C@@H](CC(N)=O)C(=O)N[C@@H](Cc1c[nH]c2ccccc12)C(=O)N[C@@H](CC(C)C)C(=O)N[C@H](C(=O)N[C@@H](CCCNC(=N)N)C(=O)N[C@@H](CCC(N)=O)C(=O)N[C@@H](CCCNC(=N)N)C(=O)N[C@@H](Cc1ccc(O)cc1)C(N)=O)[C@@H](C)O)C(C)C)[C@@H](C)O [Compound 141, N{alpha-4}-(3-methylbutanoyl)-N{epsilon-7}-(6-[(4S)-4-carboxy-4-(17-carboxyheptadecanamido)butanamido]hexanoyl)-[4A,7K,9E,13T,18Q,19S,22V,28Y,30W,31L]-hPYY(4-36)] |
